From the METLIN SMRT retention time set (Domingo-Almenara et al. 2019)

Experiment: gradient 5% acetonitrile 3 min, to 50% in 2 min, to 85% in 15 min, held 3 min, 100 µL/min
Conditions: column: Zorbax Extend-C18 2.1 x 50 mm; eluents: water / acetonitrile, 0.1% formic acid
Summary of the method: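 Standards, all pure, were combined into mixtures of ~100 molecules and run at 100 μL/min on a Zorbax Extend-C18 column (2.1 × 50 mm, 1.8 μm) with water and acetonitrile, each containing 0.1% formic acid. A coupled quadrupole time-of-flight mass spectrometer operated in positive and negative ionization mode. Retention time values come from computationally picked adduct peaks, each inspected manually.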

RP-LC retention time | Compound
639 s | O=C(NCCc1c[nH]c2ccc(Cl)cc12)c1ccncc1
733 s | O=C(NCCS(=O)(=O)N1CCc2ccccc2C1)c1cc(=O)c2ccccc2o1
884 s | C[C@H]1CN(S(=O)(=O)c2ccccc2F)C[C@@H]1c1nc(-c2ccncc2)no1
933 s | O=c1c(S(=O)(=O)N2CCCCCC2)cccn1Cc1ccc(F)cc1
917 s | Cc1cccc(N2C(=O)CN(Cc3ccccc3Cl)[C@H]3CS(=O)(=O)C[C@H]32)c1
804 s | CC(NC(=O)c1cccc(NC(=O)c2ccco2)c1)C(=O)N1CCCc2ccccc21 (stereo not given)
804 s | O=C1CC(C(=O)N2CCc3ccccc3C2)CN1CCc1c[nH]c2ccc(F)cc12 (stereo not given)
876 s | O=S(=O)(c1cccc2cccnc12)N1CCc2ccccc2C1
587 s | Cc1cnc(C2CC2)n1CCNS(=O)(=O)c1ccccc1F
875 s | COc1ccc(OC)c(CNC(=O)CCC2CCN(S(=O)(=O)c3ccccc3)CC2)c1
748 s | COc1ccc2[nH]cc(CCN3CC(C(=O)Nc4ccccc4)CC3=O)c2c1 (stereo not given)
751 s | O=C(O)CCC1CCN(S(=O)(=O)c2ccccc2F)CC1
741 s | Cc1ccccc1NC(=O)C1CCN(C(=O)C2Sc3ccccc3NC2=O)CC1 (stereo not given)
709 s | Cc1nc(S(=O)(=O)N2CCC(C(=O)NCc3ccc(Cl)cc3)CC2)cn1C
592 s | O=C(NCCN1CCOCC1)c1nc(Nc2ccc(F)cc2)c2ccccc2n1
1030 s | CCOc1ccc(NC(=O)Cn2c(=O)cc(-c3nc(C(C)C)no3)c3ccccc32)cc1
1110 s | CCCn1cc(C(=O)NCc2ccccc2C)c(S(=O)(=O)N2CCC(C)CC2)n1
819 s | O=C(Cn1cnc(-c2nc(-c3ccccc3)cs2)c1)Nc1ccccc1
879 s | CCOC(=O)c1cc(C)nc2c1c(=O)n(Cc1ccccc1)c(=O)n2C
831 s | COc1ccc(NC(=O)Cn2c(=O)nc(N3CCC(C)CC3)c3ccccc32)c(OC)c1
1020 s | O=C(C1=NN(CCc2ccccc2)c2ccccc2S1(=O)=O)N1CCCCCC1
943 s | Cc1ccc(CNS(=O)(=O)c2cc3c(s2)CCN(C(=O)C2CCC2)C3)cc1
789 s | Cc1cccc(Cn2cc(S(=O)(=O)N3CCOCC3)ccc2=O)c1
840 s | COc1ccccc1NC(=O)N1CCC2(CC1)N=C(c1cccc(F)c1)C(=O)N2
621 s | Cc1noc(C)c1CN1CCC(NC(=O)c2cc3ccccc3[nH]2)CC1
838 s | Cc1nc(-c2ccc(F)cc2)sc1C(=O)N[C@@H](Cc1c[nH]c2ccccc12)C(=O)O
638 s | CC(NC(=O)CSc1nnc2c3ccccc3nc(-c3ccco3)n12)c1nc2ccccc2[nH]1 (stereo not given)
663 s | O=C(Cc1cccs1)N1CCCC(c2nncn2-c2ccccc2)C1 (stereo not given)
589 s | CC(C)NC(=O)Cn1c(-c2ccccc2F)nc2ccccc21
778 s | N#Cc1ccc(C(=O)NC(Cc2ccccc2)c2nnc(N3CCCC3)o2)cc1 (stereo not given)

Continued, molecule first:

Compound | RP-LC retention time
Cc1cc2c(=O)n(CC(=O)Nc3cccc(C(C)C)c3)ccc2s1 | 904 s
O=C(c1cccnc1)N1CCC(n2nc(-c3ccsc3)ccc2=O)CC1 | 650 s
CCCCC(=O)N1CCCN(C2=NS(=O)(=O)C(c3ccc(C)cc3)=C2C)CC1 | 855 s
Cc1nc(-c2cc(S(=O)(=O)Nc3ccc(F)c(Cl)c3)c(C)s2)cs1 | 1030 s
CCN1c2ccc(C)cc2C(=O)NC12CCN(C(=O)c1ccccc1OC)CC2 | 786 s
CN(CC1CCOC1)C(=O)c1ccc(F)cc1Cl (stereo not given) | 704 s
CCn1cc(S(=O)(=O)N2CCCCC2c2nc(-c3ccncc3)n[nH]2)cn1 (stereo not given) | 695 s
COc1cc2c(cc1OC)C(C(=O)Nc1ccc3c(c1)OCO3)C(c1cccs1)N(C)C2=O (stereo not given) | 790 s
CCC(C)NC(=O)Cn1cnc2nc(N3CCC(C(=O)NC4CC4)CC3)sc2c1=O (stereo not given) | 1140 s
Fc1ccc(-c2nc3cnccn3c2Nc2ccc(Cl)cc2)cc1 | 936 s
O=C(c1ccc(OCC2CCCN2C(=O)COc2ccc(F)cc2)cc1)N1CCCC1 (stereo not given) | 761 s
COC(=O)c1ccccc1Nc1c(-c2ccc(N(C)C)cc2)nc2cnccn12 | 921 s
CC(C)CCNC(=O)C1Cn2cccc2C(=O)N1C (stereo not given) | 668 s
CCOc1ccc(-c2nc3ncccn3c2NC2CCCCC2)cc1 | 808 s
CCc1ccc(NC(=O)N2CCC(n3cnc4ccc(C)cc4c3=O)CC2)cc1 | 838 s
O=C(NCc1ccco1)C1CCN(C(=O)c2ncn3c2COC(c2ccc(F)cc2)C3)CC1 (stereo not given) | 711 s
Cc1ccc(-c2nc(-c3ccc4c(c3)nc(C)c(=O)n4C)no2)cc1C | 1180 s
O=C(CSc1ccc(N2CCCC(C(=O)NC3CC3)C2)nn1)NCc1cc(F)cc(F)c1 (stereo not given) | 642 s
COCC(=O)Nc1cc(-c2nc3ccc(C)cc3[nH]2)ccc1C | 620 s
O=C(Nc1c(-c2ccccc2)nc2ccc(Cl)cn12)c1ccc(F)cc1 | 750 s

Compound | RP-LC retention time
O=C(CCN1C(=O)C2CC=CCC2C1=O)N1CCN(c2ccccn2)CC1 (stereo not given) | 558 s
COc1ccccc1CNC(=O)Cn1nc2c(N3CCC(C)CC3)nccn2c1=O | 745 s
Cc1nc2cc3c(cc2n1CC(=O)Nc1ccc2c(c1)OCCCO2)OCCO3 | 618 s
CCOc1ccc(NC(=O)Cn2nc3n(c2=O)CCCC3)cc1 | 655 s
CC1CCN(C(=O)c2cccn2Cc2noc(-c3ccc(Cl)cc3)n2)CC1 | 1200 s
c1ccc(-c2nc(C3CC3)no2)c(OC2CCNC2)c1 (stereo not given) | 588 s
Cc1ccc(C)c(NC(=O)C2CCCN2S(C)(=O)=O)c1 (stereo not given) | 738 s
COc1ccc(C(=O)N2CCC3(CC2)NC(=O)c2ccccc2N3C)cc1OC | 676 s
Cc1ccoc1C(=O)N1CCCn2ccnc2C1c1cnn(C)c1 (stereo not given) | 570 s
O=C1CCCc2nc(N3CCN(c4ccccn4)CC3)ncc21 | 566 s
CCNc1nc(C)cc(N2CCN(S(=O)(=O)c3ccccc3C(F)(F)F)CC2)n1 | 732 s
Cc1cc(OCCN2CC2)c2ccccc2n1 | 664 s
COC(=O)C1=CN(C2CC2)c2cc(N3CCCC(C)C3)c(F)cc2S1(=O)=O (stereo not given) | 1010 s
Cc1cc2c(cc1S(=O)(=O)N1CCCC1C(=O)Nc1ccc(F)cc1Cl)OC(C)C(=O)N2 (stereo not given) | 849 s
O=C(CN1C(=O)C2CCCCN2c2ccc(C(=O)N3CCCC3)cc21)Nc1ccc2c(c1)OCCO2 (stereo not given) | 779 s
CCOc1ccc(C(C)NC(=O)c2nnc(-c3ccc(S(=O)(=O)N(C)C)cc3)o2)cc1 (stereo not given) | 923 s
CN(C)S(=O)(=O)N1CCN(S(=O)(=O)c2ccc(F)cc2)CC1 | 757 s
Cc1ccc(-c2ccc(CNc3ncn[nH]3)o2)cc1Cl | 731 s
Cc1nnsc1C(=O)N1CCC(CNC(=O)c2ccccc2C(F)(F)F)CC1 | 674 s
COc1ccc(OC)c(Nc2c(-c3ccc(SC)cc3)nc3cnccn23)c1 | 923 s

Compound | RP-LC retention time
Cc1ccc(C(O)Cn2ccn3nc(-c4ccc(F)cc4)cc3c2=O)cc1C (stereo not given) | 1020 s
Cc1c(Cl)cccc1NC(=O)C1CCCN(c2nc3c(s2)c(C)nn3-c2ccccc2)C1 (stereo not given) | 1250 s
Cc1ccc(CNC(=O)c2cnc(-c3ccc(C)cc3)nc2-c2ccncc2)cc1 | 923 s
Cc1sc(NC(=O)COc2ccc(Cl)cc2)nc1-c1ccc2c(c1)NC(=O)CO2 | 873 s
O=C(Cn1nc2c(cc1=O)CCCC2)Nc1ccc(Br)cc1 | 747 s
CN1CCn2ccnc2C12CCN(C(=O)Nc1ccccc1Cl)CC2 | 576 s
O=C1C(Br)=Cc2cccc3cccc1c23 | 996 s
Cc1cc(Cl)ccc1NC(=O)C1CCN(c2c(C(=O)N3CCOCC3)cnc3snc(C)c23)CC1 | 847 s
Cc1cccc(-c2noc(C3CCCN3S(=O)(=O)c3ccc(C)c(C)c3)n2)c1 (stereo not given) | 1210 s
CN1CC2(CCCC2)N(C(=O)COc2ccc(Cl)cc2)CC1=O | 799 s
Cc1noc(C2(NC(=O)c3cccc(F)c3)CCCCC2)n1 | 860 s
COc1ccc(S(=O)(=O)N2CCN(c3cc(C)nc(N4CCCC4)n3)CC2)cc1Cl | 754 s
Cc1cc(C)cc(NS(=O)(=O)c2c(C)sc(C)c2-c2cc(C)[nH]n2)c1 | 1100 s
CN1CCCC2C(c3ccccc3)C(C3=NCCCC3)C(c3ccccc3)CC21 (stereo not given) | 589 s
COCC(=O)N(CCC(C)C)CC(=O)N1CCc2sccc2C1COc1ccccc1F (stereo not given) | 958 s
CNC(=O)[C@@H]1CN(C(=O)c2ccn(C)n2)C[C@H]1COC | 535 s
O=C1CCN(C(=O)C2CCN(C(=O)C3CC3)CC2)CCCCCCN1 | 598 s
O=C(CC1=NS(=O)(=O)c2ccccc2N1)Nc1ccc(F)cc1F | 679 s
CCOC(=O)c1c(S(=O)(=O)N2CCC(C(=O)NC3CCCCC3)CC2)c(C)n(C)c1C | 828 s
COc1ccc(NS(=O)(=O)c2cc(-c3cc(C(F)(F)F)on3)sc2C)cc1OC | 1020 s
